Assay in all cases: inhibition of tumour cell growth, NCI panel, 48 h
The subject of assay [1] is HS 578T breast.
Assay [2] relates to MOLT-4 leukemia.
Assay [3] deals with SF-295 CNS.
For assay [4], the system named is RXF 393 renal.
Assay [5] relates to COLO 205 colon.
In assay [6] the test system is UACC-62 melanoma.
The subject of assay [7] is MDA-MB-231 breast.
Assay [8] deals with HCT-116 colon.
Assay [9] concerns SW-620 colon.
In assay [10] the test system is 786-0 renal.

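These data come from cells grown in 96-well plates and exposed to compound for 48 hours at five concentrations. At the TGI there is no net growth.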 Some results are limits rather than exact numbers.

In the case of `COC(=O)c1ccccc1CC1Cc2cccc(C)c2C1=O` (stereo not given), the TGI in assay [1] was > 100 µM; in assay [2], 51.2 µM; in assay [3] it was > 100 µM; in [4] it was 63.7 µM; in assay [5], 39.3 µM; in [6] it was 98.1 µM. The TGI in assay [7], in assay [8], in assay [9] and in assay [10] was > 100 µM in each case.

As to `CCOc1c(OC)cc(-c2nc3n(n2)C(=O)C(CC)S3)cc1OC` (stereo not given), the TGI in assay [1], in assay [2], in [3], in [4], in [5] and in assay [6] was > 10 µM in each case. Also, the TGI in assay [7], in assay [8], in assay [9] and in [10] was > 10 µM each time.

With `O=C(CC(=O)Nc1ccccc1)NNC(Sc1ccccc1)c1cc(N=Nc2ccc(Br)cc2)ccc1O` (stereo not given), the TGI in assay [1] is > 10 µM; in assay [2], > 10 µM; in assay [3] it was > 10 µM; in [4], > 10 µM; in assay [5] it was > 10 µM; in assay [6], 9.81 µM. Further, the TGI in [7] was > 10 µM; in assay [8] it was 2.81 µM; in [9] it was > 10 µM; in assay [10], > 10 µM.

Values taken from PubChem BioAssay (NCI).
